Experimental data taken from BindingDB's records for doi:10.1016/0922-4106(94)90065-5 (National Children's Medical Research Center, 1994).

Molecular target: T1, Alpha-1B adrenergic receptor (Mesocricetus auratus, UniProt P18841)
T1 sequence (P18841 whole entry): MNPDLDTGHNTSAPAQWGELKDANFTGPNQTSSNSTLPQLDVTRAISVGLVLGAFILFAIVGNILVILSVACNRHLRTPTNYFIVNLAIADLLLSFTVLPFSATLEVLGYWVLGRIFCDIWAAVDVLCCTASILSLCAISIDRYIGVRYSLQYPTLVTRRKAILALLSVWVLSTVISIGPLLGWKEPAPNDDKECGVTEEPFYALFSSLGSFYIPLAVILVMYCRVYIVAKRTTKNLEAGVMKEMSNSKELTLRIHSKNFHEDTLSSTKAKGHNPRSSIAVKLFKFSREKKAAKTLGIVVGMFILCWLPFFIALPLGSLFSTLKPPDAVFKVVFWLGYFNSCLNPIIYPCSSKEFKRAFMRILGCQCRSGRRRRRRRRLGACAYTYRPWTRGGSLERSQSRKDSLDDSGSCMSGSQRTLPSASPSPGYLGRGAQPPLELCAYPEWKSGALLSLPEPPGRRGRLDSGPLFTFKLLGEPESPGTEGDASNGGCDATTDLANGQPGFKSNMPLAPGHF

Structure (SMILES) | Ki
COc1ccc(OC)c(C(O)C(C)N)c1 (stereo not drawn) | > 10000 nM
CNCC(O)c1ccc(O)c(O)c1 (stereo not drawn) [EPINEPHRINE] | 9400 nM
CC(C)NCC(O)c1ccc(O)c(O)c1 (stereo not drawn) [Isoproterenol,(+)] | > 10000 nM
COc1cccc(OC)c1OCCNCC1Oc2ccccc2OC1c1ccccc1 (stereo not drawn) [NSC_185453] | 5.2 nM
NCC(O)c1ccc(O)c(O)c1 (stereo not drawn) [Noradrenaline,(+)] | 920 nM
Cc1ccc(N(CC2=NCCN2)c2cccc(O)c2)cc1 [SMR000059054] | 18 nM
COc1ccccc1N1CCN(CCCNc2c(C)c(=O)n(C)c(=O)n2C)CC1 [Urapidil-5-methyl] | 180 nM
COC(=O)[C@@H]1[C@H]2C[C@H]3c4[nH]c5ccccc5c4CCN3C[C@@H]2CC[C@@H]1O [yohimbic acid methyl ester] | 670 nM
